Experimental data as given in PMC9127750, “Structure-based design of CDC42 effector interaction inhibitors for the treatment of cancer” (Cell reports, 2022).
Values joined by “and” are separate entries in the source; they are usually repeats but may differ in a detail not shown here. Identical values can stand only once.

System: WM3248 melanoma cells, 486 antibodies
Assay: Reverse phase protein arrays (RPPA);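 on CA9.R.C RPPA level: ratio of treated to vehicle (0 µM) normalized linear protein signal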;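 on CD171.M.V RPPA level: ratio of treated to vehicle (0 µM) normalized linear protein signal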;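 on CREB pS133.R.C RPPA level: ratio of treated to vehicle (0 µM) normalized linear protein signal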;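 on Cyclin.B1.R.V RPPA level: ratio of treated to vehicle (0 µM) normalized linear protein signal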
Assay type: cell-based, Human
Settings: 20 uM
Source text: Pellets were snap frozen in liquid nitrogen and shipped to MD Anderson Cancer Center core RPPA facility for RPPA analysis (Table S5). Three biological replicates for each sample were generated.
Nomenclatures on the RPPA heatmaps: name_of_antibody.species_of_antibody.status_of_antibody. V - antibody validated; C - validation of antibody in progress; Q - antibody nonspecific; E – under evaluation; antibodies raised in M - mouse, G - goat, R - rabbit, or T - rat.

SMILES: CN(C)c1cccc(Nc2cc(-c3ccccc3)nc(C3CCNCC3)n2)c1 [ARN22089, N1,N1-dimethyl-N3-(6-phenyl-2-(piperidin-4-yl)pyrimidin-4-yl)benzene-1,3-diamine]
- RPPA signal, antibody UQCRC2.M.C (individual replicates): 0.993 and 0.916 and 0.753
- RPPA signal, antibody UVRAG.R.C (individual replicates): 0.916 and 1.111 and 1.110
- RPPA signal, antibody VASP.R.V (individual replicates): 1.010 and 0.872 and 0.975
- RPPA signal, antibody VAV1.R.C (individual replicates): 0.958 and 1.058 and 1.057
- RPPA signal, antibody VEGFR.2.R.V (individual replicates): 0.883 and 0.823 and 1.079
- RPPA signal, antibody VEGFR.2_pY1175.R.C (individual replicates): 1.118 and 0.976
- RPPA signal, antibody VHL.EPPK1.M.C (individual replicates): 1.005 and 1.203 and 0.853
- RPPA signal, antibody VHL.R.C (individual replicates): 0.953 and 0.849
- RPPA signal, antibody Vinculin.M.V (individual replicates): 0.888 and 0.854 and 0.998
- RPPA signal, antibody WIPI1.R.C (individual replicates): 1.160 and 1.238 and 1.145
- RPPA signal, antibody WIPI2.R.C (individual replicates): 1.015 and 1.158 and 1.252
- RPPA signal, antibody WTAP.R.V (individual replicates): 1.419 and 1.174 and 0.998
- RPPA signal, antibody Wee1.R.C (individual replicates): 0.776 and 1.131 and 1.126
- RPPA signal, antibody Wee1_pS642.R.C (individual replicates): 0.845 and 1.173 and 1.116
- RPPA signal, antibody XBP.1.G.C (individual replicates): 0.989 and 0.988
- RPPA signal, antibody XIAP.R.C (individual replicates): 0.944 and 0.910 and 1.125
- RPPA signal, antibody XPA.M.V (individual replicates): 0.967 and 1.026
- RPPA signal, antibody XPF.R.C (individual replicates): 0.937 and 0.898 and 1.023
- RPPA signal, antibody XRCC1.R.C (individual replicates): 1.008 and 1.026
- RPPA signal, antibody YAP.R.C (individual replicates): 1.004 and 1.030 and 0.945
- RPPA signal, antibody YAP_pS127.R.V (individual replicates): 1.152 and 0.978 and 0.976
- RPPA signal, antibody YB1_pS102.R.V (individual replicates): 1.029 and 0.913 and 1.102
- RPPA signal, antibody YES1.R.V (individual replicates): 1.048 and 0.896 and 0.978
- RPPA signal, antibody YTHDF2.R.V (individual replicates): 1.166 and 0.983 and 0.917
- RPPA signal, antibody YTHDF3.R.C (individual replicates): 0.960 and 0.870
- RPPA signal, antibody ZAP.70.R.V (individual replicates): 0.979 and 0.883 and 0.925
- RPPA signal, antibody ZEB1.R.V (individual replicates): 1.076 and 1.001 (2×)
- C.Raf.R.C RPPA level (replicates): 0.876 and 1.165 and 1.143
- C.Raf_pS338.R.V RPPA level (replicates): 0.991 and 1.112 and 1.160
- CA9.R.C RPPA level (replicates): 0.919 and 0.861 and 0.996
- CD2.M.C RPPA level (replicates): 0.941 and 0.909 and 0.958
- CD4.R.V RPPA level (replicates): 0.942 and 0.993 and 1.083
- CD5.M.C RPPA level (replicates): 0.997 and 0.956 and 0.945
- CD20.R.C RPPA level (replicates): 1.250 and 0.955
- CD26.R.V RPPA level (replicates): 1.005 and 0.958 and 1.161
- CD29.M.V RPPA level (replicates): 0.953 and 0.914 and 0.985
- CD31.M.V RPPA level (replicates): 0.978 and 0.997 and 0.990
- CD38.R.C RPPA level (replicates): 0.979 and 1.221 and 1.194
- CD44.R.C RPPA level (replicates): 1.115 and 0.966
- CD45.M.V RPPA level (replicates): 0.921 and 0.967 and 0.985
- CD49b.M.V RPPA level (replicates): 0.971 and 0.954
- CD68.M.C RPPA level (replicates): 1.009 and 1.025 and 0.962
- CD74.M.V RPPA level (replicates): 1.011 and 1.026 and 0.956
- CD134.R.V RPPA level (replicates): 0.989 and 0.997 and 0.996
- CD171.M.V RPPA level (replicates): 0.680 and 0.817 and 0.790
- CDK1_pT14.R.C RPPA level (replicates): 1.334 and 0.655
- CDK9.R.V RPPA level (replicates): 1.161 and 0.839 and 0.893
- CDKN2A.R.C RPPA level (replicates): 0.966 and 1.130 and 0.976
- CDT1.R.V RPPA level (replicates): 0.905 and 0.934
- CENP.A.R.V RPPA level (replicates): 2.651 and 0.953
- CHD1L.R.V RPPA level (replicates): 0.935 and 0.987 and 0.941
- CIITA.R.C RPPA level (replicates): 1.013 and 1.020 and 0.972
- COG3.R.V RPPA level (replicates): 0.941 and 1.097 and 1.256
- CRABP1.R.C RPPA level (replicates): 1.019 and 1.064 and 0.991
- CRABP2.R.V RPPA level (replicates): 0.965 and 1.085 and 0.882
- CREB_pS133.R.C RPPA level (replicates): 0.965 and 1.585 and 1.260
- CSK.R.C RPPA level (replicates): 0.871 and 1.022
- Calnexin.R.V RPPA level (replicates): 0.849 and 0.983
- Caspase.3.cleaved.R.C RPPA level (replicates): 0.952 and 1.128 and 1.028
- Caspase.7.cleaved..R.C RPPA level (replicates): 1.007 and 0.873 and 1.064
- Caspase.8.M.Q RPPA level (replicates): 1.015 and 0.943 and 0.830
- Caspase.8.cleaved.R.C RPPA level (replicates): 0.945
- Caveolin.1.R.V RPPA level (replicates): 0.593 and 0.774 and 1.160
- Cdc6.R.V RPPA level (replicates): 1.141 and 0.773 and 0.673
- Cdc42.R.C RPPA level (replicates): 0.928 and 1.027 and 1.096
- Chk1.M.C RPPA level (replicates): 0.847 and 0.982
- Chk1_pS296.R.V RPPA level (replicates): 0.942 and 1.163 and 1.155
- Chk1_pS345.R.C RPPA level (replicates): 1.030 and 1.165 and 1.125
- Chk2.M.V RPPA level (replicates): 0.868 and 0.876 and 0.992
- Chk2_pT68.R.C RPPA level (replicates): 0.919 and 1.631 and 1.172
- Claudin.7.R.V RPPA level (replicates): 0.970 and 1.594 and 0.965
- Collagen.VI.R.V RPPA level (replicates): 1.150 and 0.775 and 0.928
- Complex.II.Subunit.M.V RPPA level (replicates): 0.977 and 0.871 and 0.988
- Connexin.43.R.C RPPA level (replicates): 0.961 and 1.203 and 1.101
- Coup.TFII.R.C RPPA level (replicates): 0.854 and 0.942 and 1.027
- Cox2.R.C RPPA level (replicates): 1.254 and 0.972 and 1.574
- Cox.IV.R.V RPPA level (replicates): 1.125 and 0.898 and 0.967
- Creb.R.C RPPA level (replicates): 1.005 and 1.024 and 1.173
- CtIP.R.V RPPA level (replicates): 0.804 and 0.988 and 1.058
- Cyclin.B1.R.V RPPA level (replicates): 1.623 and 0.503 and 1.275
- Cyclin.D1.R.C RPPA level (replicates): 1.131 and 1.034 and 0.955
